Read-outs that look alike come from different tables or passages of the source.
What was measured:
Format in all cases: cell-based
[1] = system: H358. non-small cell lung cancer line bearing KRas^G12C oncogenic mutation; assay: Antiproliferative MTS assay, H358 cells; conditions: compounds 1-23, 47-52 and Reference Example 1 median of experiments, 24-46 estimations and/or preliminary results, read-out: IC50 values: cell proliferation inhibition, H358
Protocol: Cell line #2: H358. non-small cell lung cancer line bearing KRas^G12C oncogenic mutation
(§1) Cell lines were cultured in DMEM or RPMI-1640 supplemented with FBS 10%. In order to assess the antiproliferative effect of compounds, cells were seeded at a density of 1.8×10^3, 6.2×10^3, 7.8×10^3, 21×10^3 and 2×10^3 cells/cm^2, respectively, in tissue culture microplates and were incubated in humidified atmosphere at 5% CO2. 24 h later, compounds dissolved in DMSO 100% were added for different final concentrations ranging between 0.1 and 50 μM for a final DMSO concentration of 0.5% and the plates were incubated for another 72 h. After incubation, proliferation was quantified using CellTiter 96® Aqueous Non-Radioactive Cell Proliferation Assay-MTS (Promega #G5421) following manufacturer instructions. Amount of 490 nm absorbance is directly proportional to the number of living cells. Absorbance was recorded with a BMG Fluostar Optima Microplate Reader and normalized to control with vehicle.

[2] = system: PANC-1. epithelioid carcinoma of the pancreas cell line bearing KRas^G12D oncogenic mutation; assay: Antiproliferative MTS assay, PANC-1 cells; conditions: compounds 1-23 and 47-52 median of experiments, 24-46 estimations and/or preliminary results, read-out: IC50 values: cell proliferation inhibition, Panc-1
Protocol: Cell line #3: PANC-1. epithelioid carcinoma of the pancreas cell line bearing KRas^G12D oncogenic mutation
as §1

[3] = system: RPMI. myeloma cell line bearing KRas^G12A oncogenic mutation; assay: Antiproliferative MTS assay, RPMI cells; conditions: 72 h, compounds 1-23 and 47-52 median of experiments, 24-46 estimations and/or preliminary results, read-out: IC50 values: cell proliferation inhibition, RPMI
Protocol: Cell line #4: RPMI. myeloma cell line bearing KRas^G12A oncogenic mutation
as §1

[4] = system: A549. Lung carcinoma cell line bearing KRas^G12S oncogenic mutation; assay: Antiproliferative MTS assay, A549 cells; conditions: compounds 1-23 and 47-52 median of experiments, 24-46 estimations and/or preliminary results, read-out: IC50 values: cell proliferation inhibition, A549
Protocol: Cell line #1: A549. Lung carcinoma cell line bearing KRas^G12S oncogenic mutation
as §1

| Structure (SMILES) | IC50 ([1]; Homo sapiens, NCI-H358, 72 h) [nM] | IC50 ([2]; Homo sapiens, PANC-1, 72 h) [nM] | IC50 [3] [nM] | IC50 ([4]; Homo sapiens, A549, 72 h) [nM] | IC50 ([1]; 72 h) [nM] | IC50 ([2]; 72 h) [nM] | IC50 ([4]; 72 h) [nM] |
| --- | --- | --- | --- | --- | --- | --- | --- |
| COc1cc(CCOc2cc3c(cc2OC)CCN(C(=O)NCC(F)(F)F)C3c2ccc(F)cc2C)ccc1N (centres unmarked) [Compound 46] | 500 | 300 | 100 | 1000 | – | – | – |
| COc1ccc(CCOc2cc3c(cc2OC)CCN(C(=O)NCc2ccon2)C3c2ccc(Cl)cc2C)cc1N (centres unmarked) [Compound 23] | 100 | 100 | 100 | 700 | – | – | – |
| COc1ccc(CCOc2cc3c(cc2OC)CCN(C(=O)NCC(F)(F)F)C3c2ccc(C)cc2C)cc1N (centres unmarked) [Compound 24] | 200 | 200 | 100 | 1000 | – | – | – |
| COc1cc(CCOc2cc3c(cc2OC)CCN(C(=O)NCC(F)(F)F)C3c2ccc(C)cc2C)ccc1N (centres unmarked) [Compound 43] | 300 | 200 | 100 | 1000 | – | – | – |
| COc1ccc(C2c3cc(OCCc4ccc(OC)c(N)c4)c(OC)cc3CCN2C(=O)NCc2cocn2)c(C)c1 (centres unmarked) [Compound 16] | 300 | 200 | 100 | 1000 | – | – | – |
| COc1cc(CCOc2cc3c(cc2OC)CCN(C(=O)NCc2ccon2)C3c2ccc(Cl)cc2C)ccc1N (centres unmarked) [Compound 42] | 300 | 300 | 100 | 1000 | – | – | – |
| COc1cc2c(cc1OCCc1ccc(OC)c([N+](=O)[O-])c1)C(c1ccc(C)cc1C)N(C(=O)NCc1cocn1)CC2 (centres unmarked) [Compound 49] | > 800 | 1500 | > 1000 | > 2000 | – | – | – |
| COc1ccc(C2c3cc(OCCc4ccc(N)c(OC)c4)c(OC)cc3CCN2C(=O)NCc2ccon2)c(C)c1 (centres unmarked) [Compound 40] | 300 | 300 | 100 | 1000 | – | – | – |
| COc1ccc(CCOc2cc3c(cc2OC)CCN(C(=O)NCc2cocn2)C3c2ccc(F)cc2C)cc1N (centres unmarked) [Compound 17] | 500 | 400 | 200 | 1000 | – | – | – |
| COc1ccc(CCOc2cc3c(cc2OC)CCN(C(=O)NCc2ccon2)C3c2ccc(F)cc2C)cc1N (centres unmarked) [Compound 22] | 700 | 600 | 500 | > 2000 | – | – | – |
| CCNC(=O)N1CCc2cc(OC)c(OCCc3ccc(N)c(OC)c3)cc2C1c1ccc(OC)cc1C (centres unmarked) [Compound 30] | 400 | 500 | 300 | 1000 | – | – | – |
| COc1cc(CCOc2cc3c(cc2OC)CCN(C(=O)NCc2ccon2)C3c2ccc(C(F)(F)F)cc2C)ccc1N (centres unmarked) [Compound 39] | 600 | 600 | 300 | > 2000 | – | – | – |
| COc1ccc(CCOc2cc3c(cc2OC)CCN(C(=O)NCc2cocn2)C3c2ccc(Cl)cc2C)cc1N (centres unmarked) [Compound 18] | 300 | 200 | 100 | 1000 | – | – | – |
| CCNC(=O)N1CCc2cc(OC)c(OCCc3ccc(N)c(OC)c3)cc2C1c1ccc(Cl)cc1C (centres unmarked) [Compound 32] | – | – | 100 | – | 300 | 200 | 1000 |
| COc1ccc(CCOc2cc3c(cc2OC)CCN(C(=O)NCc2ccon2)C3c2ccc(C)cc2C)cc1N (centres unmarked) [Compound 19] | 500 | 300 | 500 | 1500 | – | – | – |
| COc1cc(CCOc2cc3c(cc2OC)CCN(C(=O)NCc2cocn2)C3c2ccc(F)cc2C)ccc1N (centres unmarked) [Compound 36] | 900 | 700 | 500 | 1700 | – | – | – |
| COc1cc(CCOc2cc3c(cc2OC)CCN(C(=O)NCc2ccon2)C3c2ccc(F)cc2C)ccc1N (centres unmarked) [Compound 41] | 900 | 700 | 900 | > 2000 | – | – | – |
